Source: patent US8822517B2, “Arylosulfonamides for the treatment of CNS diseases” (Adamed SP. Z O.O., priority 2010, dated 2014)

How the values were obtained:
[1] = molecular target: dopaminergic D3 receptor (Homo sapiens, UniProt P35462); experiment: Binding assay D3 (h), [3H]methyl-spiperone, CHO cells; set-up: expressed in transfected cells; host or cells: CHO cells; settings: read-out: D3 [%]
In short: (§1)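 At 1×10^−6 M, compounds were assessed for their effect on specific radioligand binding, computed as total less nonspecific binding (excess unlabelled ligand present).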

[2] = test system: adrenergic α1 receptor; experiment: Binding assay α1 (non-selective), [3H]prazosin, rat cerebral cortex; settings: percent inhibition of control specific binding; compounds tested at 1×10^−6 M
In short: as §1

[3] = molecular target: T1, adrenergic α2C receptor (Homo sapiens, UniProt P18825); experiment: Binding assay α2C (h), [3H]RX 821002, CHO cells; set-up: expressed in transfected cells; host or cells: CHO cells; settings: read-out: α2C [%]
T1 sequence (P18825 1-462): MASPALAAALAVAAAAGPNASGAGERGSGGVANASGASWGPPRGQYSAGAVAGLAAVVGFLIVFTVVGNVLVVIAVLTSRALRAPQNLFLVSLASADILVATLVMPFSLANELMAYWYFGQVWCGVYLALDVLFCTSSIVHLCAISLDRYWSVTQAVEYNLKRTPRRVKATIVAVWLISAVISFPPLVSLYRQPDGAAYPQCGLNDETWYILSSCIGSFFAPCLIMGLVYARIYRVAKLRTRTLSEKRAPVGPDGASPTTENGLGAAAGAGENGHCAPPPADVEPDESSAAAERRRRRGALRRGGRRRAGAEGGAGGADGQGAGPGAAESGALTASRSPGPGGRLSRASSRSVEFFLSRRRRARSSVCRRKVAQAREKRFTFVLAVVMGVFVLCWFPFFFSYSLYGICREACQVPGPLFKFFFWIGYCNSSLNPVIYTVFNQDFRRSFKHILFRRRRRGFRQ
In short: as §1

[4] = molecular target: serotoninergic 5-HT7 receptor (Homo sapiens, UniProt P34969); experiment: Binding assay 5-HT7 (h), [3H]LSD, CHO cells; set-up: expressed in transfected cells; host or cells: CHO cells; settings: read-out: 5-HT7
Chain of serotoninergic 5-HT7 receptor (P34969 whole entry): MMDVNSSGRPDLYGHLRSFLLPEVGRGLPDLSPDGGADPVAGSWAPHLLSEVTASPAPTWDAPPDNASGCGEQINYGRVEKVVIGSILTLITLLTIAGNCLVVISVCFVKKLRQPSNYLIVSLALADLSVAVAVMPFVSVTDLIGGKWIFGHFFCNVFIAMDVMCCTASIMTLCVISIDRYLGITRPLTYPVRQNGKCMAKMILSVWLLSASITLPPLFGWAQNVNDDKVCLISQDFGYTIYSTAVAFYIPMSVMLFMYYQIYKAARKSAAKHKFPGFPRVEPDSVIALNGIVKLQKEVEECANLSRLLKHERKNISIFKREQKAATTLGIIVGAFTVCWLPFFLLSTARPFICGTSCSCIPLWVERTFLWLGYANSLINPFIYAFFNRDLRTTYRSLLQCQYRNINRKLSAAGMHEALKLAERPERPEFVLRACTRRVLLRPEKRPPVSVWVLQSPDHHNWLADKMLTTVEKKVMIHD
In short: as §1

[5] = molecular target: T2, serotonine transporter (SERT) receptor (Homo sapiens, UniProt P31645); experiment: Binding assay SERT (h), [3H]imipramine, CHO cells; settings: read-out: SERT [%]
T2 construct: expressed in transfected cells; host or cells: CHO cells
T2 sequence (P31645 whole entry): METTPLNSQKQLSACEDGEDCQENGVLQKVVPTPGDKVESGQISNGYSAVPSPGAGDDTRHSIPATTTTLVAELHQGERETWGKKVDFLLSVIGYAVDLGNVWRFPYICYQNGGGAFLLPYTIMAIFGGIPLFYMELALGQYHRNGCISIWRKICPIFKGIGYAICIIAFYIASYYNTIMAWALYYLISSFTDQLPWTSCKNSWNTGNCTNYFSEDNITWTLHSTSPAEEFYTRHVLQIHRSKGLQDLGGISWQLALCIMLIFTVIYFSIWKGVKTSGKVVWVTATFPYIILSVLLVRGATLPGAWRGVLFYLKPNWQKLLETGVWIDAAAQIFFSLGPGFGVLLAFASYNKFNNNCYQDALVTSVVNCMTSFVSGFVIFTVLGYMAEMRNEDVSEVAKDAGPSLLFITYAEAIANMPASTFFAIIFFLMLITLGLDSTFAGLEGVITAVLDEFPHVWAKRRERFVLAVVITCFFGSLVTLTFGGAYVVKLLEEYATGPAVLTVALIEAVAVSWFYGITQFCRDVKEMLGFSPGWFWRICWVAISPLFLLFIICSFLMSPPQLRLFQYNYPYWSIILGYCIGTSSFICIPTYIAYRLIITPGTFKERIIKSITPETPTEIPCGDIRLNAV
In short: as §1

[6] = molecular target: T3, serotoninergic 5-HT1A receptor (Homo sapiens, UniProt P08908); experiment: Binding assay 5-HT1A (h), [3H]8-OH-DPAT, HEK-293 cells; set-up: expressed in transfected cells; host or cells: HEK-293 cells; settings: read-out: 5-HT1A
T3 sequence (P08908 1-422): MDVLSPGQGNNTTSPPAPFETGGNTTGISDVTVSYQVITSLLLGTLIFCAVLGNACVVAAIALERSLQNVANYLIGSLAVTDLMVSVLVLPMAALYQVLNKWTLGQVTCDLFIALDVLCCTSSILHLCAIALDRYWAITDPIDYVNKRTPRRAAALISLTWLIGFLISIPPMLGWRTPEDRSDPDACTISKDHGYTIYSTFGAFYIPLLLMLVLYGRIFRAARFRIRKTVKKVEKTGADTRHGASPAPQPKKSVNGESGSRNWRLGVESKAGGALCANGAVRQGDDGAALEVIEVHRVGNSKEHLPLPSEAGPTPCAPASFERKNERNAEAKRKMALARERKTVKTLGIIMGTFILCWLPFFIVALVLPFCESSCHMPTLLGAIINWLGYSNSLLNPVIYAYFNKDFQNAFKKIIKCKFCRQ
In short: as §1

[7] = molecular target: serotoninergic 5-HT2A receptor (Homo sapiens, UniProt P28223); experiment: Binding assay 5-HT2A (h), [3H]ketanserin, HEK-293 cells; set-up: expressed in transfected cells; host or cells: HEK-293 cells; settings: read-out: 5-HT2A
Chain of serotoninergic 5-HT2A receptor (P28223 whole entry): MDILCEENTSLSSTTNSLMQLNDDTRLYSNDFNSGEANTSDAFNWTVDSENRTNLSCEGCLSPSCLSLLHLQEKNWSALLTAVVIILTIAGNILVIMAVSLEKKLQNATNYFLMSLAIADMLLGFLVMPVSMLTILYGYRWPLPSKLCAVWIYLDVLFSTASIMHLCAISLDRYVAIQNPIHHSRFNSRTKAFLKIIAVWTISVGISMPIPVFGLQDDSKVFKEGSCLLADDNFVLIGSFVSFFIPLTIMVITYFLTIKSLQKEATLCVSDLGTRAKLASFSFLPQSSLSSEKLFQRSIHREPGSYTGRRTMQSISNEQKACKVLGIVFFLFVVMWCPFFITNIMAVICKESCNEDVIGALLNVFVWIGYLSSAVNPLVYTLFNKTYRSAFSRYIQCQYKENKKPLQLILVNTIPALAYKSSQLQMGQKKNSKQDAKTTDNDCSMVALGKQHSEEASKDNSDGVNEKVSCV
In short: as §1

[8] = molecular target: dopaminergic D2 receptor (Homo sapiens, UniProt P14416); experiment: Binding assay D2S (h), [3H]methyl-spiperone, HEK-293 cells; set-up: expressed in transfected cells; host or cells: HEK-293 cells; settings: read-out: D2 [%]
Chain of dopaminergic D2 receptor (P14416 1-414 isoform P14416-2): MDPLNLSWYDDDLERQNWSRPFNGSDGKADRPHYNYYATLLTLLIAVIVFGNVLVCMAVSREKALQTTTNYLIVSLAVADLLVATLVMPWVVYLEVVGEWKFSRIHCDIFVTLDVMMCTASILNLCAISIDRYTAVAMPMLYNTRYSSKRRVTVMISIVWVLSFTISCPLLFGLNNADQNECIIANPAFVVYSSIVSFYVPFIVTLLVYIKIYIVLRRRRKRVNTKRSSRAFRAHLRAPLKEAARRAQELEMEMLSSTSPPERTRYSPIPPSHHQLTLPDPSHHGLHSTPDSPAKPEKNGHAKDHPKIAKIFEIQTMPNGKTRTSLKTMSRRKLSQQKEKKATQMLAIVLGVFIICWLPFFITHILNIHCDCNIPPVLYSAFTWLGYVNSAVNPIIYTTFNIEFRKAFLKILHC
In short: as §1

[9] = molecular target: histaminergic H1 receptor (Homo sapiens, UniProt P35367); experiment: Binding assay H1 (h), [3H]pyrilamine, HEK-293 cells; set-up: expressed in transfected cells; host or cells: HEK-293 cells; settings: read-out: H1 [%]
Chain of histaminergic H1 receptor (P35367 whole entry): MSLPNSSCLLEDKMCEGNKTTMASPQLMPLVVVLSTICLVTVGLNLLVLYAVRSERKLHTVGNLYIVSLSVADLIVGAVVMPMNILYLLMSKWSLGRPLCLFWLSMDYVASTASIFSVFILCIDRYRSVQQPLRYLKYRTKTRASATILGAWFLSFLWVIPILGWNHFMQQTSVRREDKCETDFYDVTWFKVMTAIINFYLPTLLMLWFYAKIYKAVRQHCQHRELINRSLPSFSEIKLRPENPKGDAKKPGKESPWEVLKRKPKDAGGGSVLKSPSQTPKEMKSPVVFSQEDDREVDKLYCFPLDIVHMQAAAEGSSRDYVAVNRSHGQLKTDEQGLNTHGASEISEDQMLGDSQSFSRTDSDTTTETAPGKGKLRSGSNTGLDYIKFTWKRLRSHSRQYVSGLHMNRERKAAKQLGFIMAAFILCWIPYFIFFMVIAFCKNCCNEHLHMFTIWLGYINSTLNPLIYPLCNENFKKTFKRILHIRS
In short: as §1

[10] = test system: sigma σ receptor; experiment: Binding assay σ (non-selective), [3H]DTG, rat cerebral cortex; settings: percent inhibition of control specific binding; compounds tested at 1×10^−6 M
In short: as §1

[11] = molecular target: T4, muscarinic M3 receptor (Homo sapiens, UniProt P20309); experiment: Binding assay M3 (h), [3H]4-DAMP, CHO cells; settings: read-out: M3 [%]
T4 construct: expressed in transfected cells; host or cells: CHO cells
T4 sequence (P20309 whole entry): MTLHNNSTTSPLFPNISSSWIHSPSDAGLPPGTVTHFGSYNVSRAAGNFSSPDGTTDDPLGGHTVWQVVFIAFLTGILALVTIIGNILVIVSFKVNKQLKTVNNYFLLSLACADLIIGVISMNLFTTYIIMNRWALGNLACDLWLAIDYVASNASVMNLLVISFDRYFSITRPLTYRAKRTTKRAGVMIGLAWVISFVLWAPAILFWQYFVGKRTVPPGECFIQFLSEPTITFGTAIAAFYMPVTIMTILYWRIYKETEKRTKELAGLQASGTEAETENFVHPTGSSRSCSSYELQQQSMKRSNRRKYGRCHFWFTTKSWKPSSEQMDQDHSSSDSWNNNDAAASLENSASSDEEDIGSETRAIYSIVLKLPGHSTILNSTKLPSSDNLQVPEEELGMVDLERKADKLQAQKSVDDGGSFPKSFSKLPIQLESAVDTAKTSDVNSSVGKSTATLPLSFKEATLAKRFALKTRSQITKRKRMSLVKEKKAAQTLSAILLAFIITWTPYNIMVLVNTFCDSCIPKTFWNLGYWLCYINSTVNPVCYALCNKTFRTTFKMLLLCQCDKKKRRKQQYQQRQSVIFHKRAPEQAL
In short: as §1

[12] = molecular target: serotoninergic 5-HT6 receptor (Homo sapiens, UniProt P50406); experiment: Binding assay 5-HT6 (h), [3H]LSD, CHO cells; set-up: expressed in transfected cells; host or cells: CHO cells; settings: read-out: 5-HT6
Chain of serotoninergic 5-HT6 receptor (P50406 whole entry): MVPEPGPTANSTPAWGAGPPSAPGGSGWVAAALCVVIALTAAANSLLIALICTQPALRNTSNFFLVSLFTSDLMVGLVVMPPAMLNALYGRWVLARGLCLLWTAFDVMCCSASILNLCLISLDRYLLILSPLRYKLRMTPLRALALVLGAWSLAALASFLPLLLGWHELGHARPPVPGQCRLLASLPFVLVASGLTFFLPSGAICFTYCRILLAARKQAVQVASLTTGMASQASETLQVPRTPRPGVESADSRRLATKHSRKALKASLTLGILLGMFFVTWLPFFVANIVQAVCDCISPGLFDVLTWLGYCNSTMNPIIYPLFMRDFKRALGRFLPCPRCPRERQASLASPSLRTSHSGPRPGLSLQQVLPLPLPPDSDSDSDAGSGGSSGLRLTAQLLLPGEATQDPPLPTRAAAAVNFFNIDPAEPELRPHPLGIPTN
In short: as §1

[13] = molecular target: T5, serotoninergic receptor 5-HT2C (Homo sapiens, UniProt P28335); experiment: Binding assay 5-HT2C (h), [3H]mesulergine, HEK-293 cells; settings: read-out: 5-HT2C [%]
T5 construct: expressed in transfected cells; host or cells: HEK-293 cells
T5 sequence (P28335 33-458): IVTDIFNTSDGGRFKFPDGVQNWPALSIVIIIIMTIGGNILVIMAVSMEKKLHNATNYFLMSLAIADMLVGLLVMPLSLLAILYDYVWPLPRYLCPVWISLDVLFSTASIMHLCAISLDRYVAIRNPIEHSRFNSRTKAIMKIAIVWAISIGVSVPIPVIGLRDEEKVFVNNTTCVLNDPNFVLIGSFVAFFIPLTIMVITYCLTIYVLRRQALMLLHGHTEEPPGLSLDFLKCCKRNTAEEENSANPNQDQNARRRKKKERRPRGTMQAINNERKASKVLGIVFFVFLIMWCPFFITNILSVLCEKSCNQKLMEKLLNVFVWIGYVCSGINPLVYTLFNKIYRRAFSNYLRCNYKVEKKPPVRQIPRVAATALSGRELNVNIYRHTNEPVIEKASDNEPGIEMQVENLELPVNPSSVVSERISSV
In short: as §1

Chain of dopaminergic D3 receptor (P35462 whole entry): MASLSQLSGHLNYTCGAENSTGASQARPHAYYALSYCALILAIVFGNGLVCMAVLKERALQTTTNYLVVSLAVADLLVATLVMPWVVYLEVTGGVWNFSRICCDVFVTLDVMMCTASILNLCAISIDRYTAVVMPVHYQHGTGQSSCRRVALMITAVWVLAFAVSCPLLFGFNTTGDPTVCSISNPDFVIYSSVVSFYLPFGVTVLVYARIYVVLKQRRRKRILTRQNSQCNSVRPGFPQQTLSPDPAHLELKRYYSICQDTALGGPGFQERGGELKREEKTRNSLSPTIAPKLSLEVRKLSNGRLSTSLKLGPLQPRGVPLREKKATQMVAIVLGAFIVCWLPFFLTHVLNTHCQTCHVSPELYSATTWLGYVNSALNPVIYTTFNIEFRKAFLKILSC

Structure (SMILES): O=S(=O)(NCCCN1CCN(c2nsc3ccccc23)CC1)c1ccc2c(c1)OCO2 [Compound 269, N-[3-[4-(1,2-Benzothiazol-3-yl)piperazin-1-yl]propyl]-1,3-benzodioxole-5-sulphonamide]
- inhibition at 1 µM [1]: 100%
- α1 [%] [2]: 97%
- inhibition at 1 µM [3]: 101%
- inhibition at 1 µM [4]: 101%
- inhibition at 1 µM [5]: 96%
- inhibition at 1 µM [6]: 99%
- inhibition at 1 µM [7]: 101%
- inhibition at 1 µM [8]: 99%
- inhibition at 1 µM [9]: 92%
- σ [%] [10]: 49%
- inhibition at 1 µM [11]: 20%
- inhibition at 1 µM [12]: 98%
- inhibition at 1 µM [13]: 92%

Structure (SMILES): O=S(=O)(NCCCCN1CCC(c2noc3cc(F)ccc23)CC1)c1ccc(F)c(F)c1 [Compound 295, 3,4-Difluoro-N-[4-[4-(6-fluoro-1,2-benzoxazol-3-yl)piperidin-1-yl]butyl]benzenesulphonamide]
- inhibition at 1 µM [1]: 98%
- α1 [%] [2]: 96%
- inhibition at 1 µM [3]: 97%
- inhibition at 1 µM [4]: 99%
- inhibition at 1 µM [5]: 16%
- inhibition at 1 µM [6]: 68%
- inhibition at 1 µM [7]: 99%
- inhibition at 1 µM [8]: 95%
- inhibition at 1 µM [9]: 95%
- σ [%] [10]: 63%
- inhibition at 1 µM [11]: 19%
- inhibition at 1 µM [12]: 93%
- inhibition at 1 µM [13]: 51%

Structure (SMILES): COc1cccc(S(=O)(=O)NCCCCN2CCC(c3noc4cc(F)ccc34)CC2)c1 [Compound 300, N-[4-[4-(6-Fluoro-1,2-benzoxazol-3-yl)piperidin-1-yl]butyl]-3-methoxybenzenesulphonamide]
- inhibition at 1 µM [1]: 96%
- α1 [%] [2]: 96%
- inhibition at 1 µM [3]: 94%
- inhibition at 1 µM [4]: 99%
- inhibition at 1 µM [5]: 30%
- inhibition at 1 µM [6]: 80%
- inhibition at 1 µM [7]: 102%
- inhibition at 1 µM [8]: 96%
- inhibition at 1 µM [9]: 87%
- σ [%] [10]: 83%
- inhibition at 1 µM [11]: 18%
- inhibition at 1 µM [12]: 89%
- inhibition at 1 µM [13]: 49%

Structure (SMILES): CC(C)(C)c1ccc(S(=O)(=O)NCCCCN2CCC(c3noc4cc(F)ccc34)CC2)cc1 [Compound 301, 4-tert-Butyl-N-[4-[4-(6-fluoro-1,2-benzoxazol-3-yl)piperidin-1-yl]butyl]benzenesulphonamide]
- inhibition at 1 µM [1]: 96%
- α1 [%] [2]: 96%
- inhibition at 1 µM [3]: 98%
- inhibition at 1 µM [4]: 98%
- inhibition at 1 µM [5]: 45%
- inhibition at 1 µM [6]: 77%
- inhibition at 1 µM [7]: 101%
- inhibition at 1 µM [8]: 96%
- inhibition at 1 µM [9]: 88%
- σ [%] [10]: 73%
- inhibition at 1 µM [11]: 18%
- inhibition at 1 µM [12]: 94%
- inhibition at 1 µM [13]: 79%

Structure (SMILES): O=S(=O)(NCCCCN1CCC(c2noc3cc(F)ccc23)CC1)c1ccc(Cl)s1 [Compound 308, 5-Chloro-N-[4-[4-(6-fluoro-1,2-benzoxazol-3-yl)piperidin-1-yl]butyl]thiophene-2-sulphonamide]
- inhibition at 1 µM [1]: 95%
- α1 [%] [2]: 91%
- inhibition at 1 µM [3]: 96%
- inhibition at 1 µM [4]: 99%
- inhibition at 1 µM [5]: 28%
- inhibition at 1 µM [6]: 81%
- inhibition at 1 µM [7]: 102%
- inhibition at 1 µM [8]: 96%
- inhibition at 1 µM [9]: 92%
- σ [%] [10]: 86%
- inhibition at 1 µM [11]: 30%
- inhibition at 1 µM [12]: 83%
- inhibition at 1 µM [13]: 57%

Structure (SMILES): Cc1c(S(=O)(=O)NCCCCN2CCC(c3noc4cc(F)ccc34)CC2)sc2ccc(Cl)cc12 [Compound 315, 5-Chloro-N-[4-[4-(6-fluoro-1,2-benzoxazol-3-yl)piperidin-1-yl]butyl]-3-methylbenzothiophene-2-sulphonamide]
- inhibition at 1 µM [1]: 97%
- α1 [%] [2]: −13%
- inhibition at 1 µM [3]: 93%
- inhibition at 1 µM [4]: 98%
- inhibition at 1 µM [5]: 68%
- inhibition at 1 µM [6]: 70%
- inhibition at 1 µM [7]: 102%
- inhibition at 1 µM [8]: 99%
- inhibition at 1 µM [9]: 90%
- σ [%] [10]: 72%
- inhibition at 1 µM [11]: 24%
- inhibition at 1 µM [12]: 98%
- inhibition at 1 µM [13]: 78%

Structure (SMILES): O=S(=O)(NCCCCN1CCC(c2noc3cc(F)ccc23)CC1)c1cc2ccccc2o1 [Compound 316, N-[4-[4-(6-Fluoro-1,2-benzoxazol-3-yl)piperidin-1-yl]butyl]benzofuran-2-sulphonamide]
- inhibition at 1 µM [1]: 95%
- α1 [%] [2]: 90%
- inhibition at 1 µM [3]: 94%
- inhibition at 1 µM [4]: 97%
- inhibition at 1 µM [5]: 47%
- inhibition at 1 µM [6]: 84%
- inhibition at 1 µM [7]: 102%
- inhibition at 1 µM [8]: 98%
- inhibition at 1 µM [9]: 85%
- σ [%] [10]: 81%
- inhibition at 1 µM [11]: 28%
- inhibition at 1 µM [12]: 93%
- inhibition at 1 µM [13]: 66%

Structure (SMILES): O=S(=O)(NCCCCN1CCC(c2noc3cc(F)ccc23)CC1)c1ccc2c(c1)OCO2 [Compound 320, N-[4-[4-(6-Fluoro-1,2-benzoxazol-3-yl)piperidin-1-yl]butyl]-1,3-benzodioxole-5-sulphonamide]
- inhibition at 1 µM [1]: 99%
- α1 [%] [2]: 98%
- inhibition at 1 µM [3]: 101%
- inhibition at 1 µM [4]: 99%
- inhibition at 1 µM [5]: 13%
- inhibition at 1 µM [6]: 69%
- inhibition at 1 µM [7]: 101%
- inhibition at 1 µM [8]: 100%
- inhibition at 1 µM [9]: 84%
- σ [%] [10]: 80%
- inhibition at 1 µM [11]: 24%
- inhibition at 1 µM [12]: 82%
- inhibition at 1 µM [13]: 46%

Structure (SMILES): O=S(=O)(NCCCCN1CCC(c2noc3cc(F)ccc23)CC1)c1ccc2c(c1)OCCO2 [Compound 321, N-[4-[4-(6-Fluoro-1,2-benzoxazol-3-yl)piperidin-1-yl]butyl]-2,3-dihydro-1,4-benzodioxine-6-sulphonamide]
- inhibition at 1 µM [1]: 98%
- α1 [%] [2]: 98%
- inhibition at 1 µM [3]: 100%
- inhibition at 1 µM [4]: 100%
- inhibition at 1 µM [5]: 61%
- inhibition at 1 µM [6]: 78%
- inhibition at 1 µM [7]: 100%
- inhibition at 1 µM [8]: 98%
- inhibition at 1 µM [9]: 95%
- σ [%] [10]: 74%
- inhibition at 1 µM [11]: 14%
- inhibition at 1 µM [12]: 89%
- inhibition at 1 µM [13]: 65%
